Source: US7585875B2, “Substituted pyrazolo[1,5-a]pyridine compounds and their methods of use” (Avigen, Inc., priority 2006, dated 2009)
Read-outs that look alike come from different tables or passages of the source.

Experiments:
[1] = target: phosphodiesterase (PDE) enzyme derived from bovine brain; assay: Inhibition of PDE (PDELight kit, cAMP substrate); type: biochemical; conditions: PDE from brain extract, cAMP as substrate
Summary of the method: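 Bovine brain PDE (0.5-1 mU/well) with 5 uM cAMP and compound (0-200 uM) or 0.5% DMSO vehicle, incubated 1 hour. AMP formed is converted to ATP and quantified by luciferase luminescence; IC50 from nonlinear regression.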

[2] = tested on: mechanical allodynia after chronic constriction injury (CCI) to the sciatic nerve; assay: Mechanical allodynia by response to von Frey fibers, rat chronic constriction injury (CCI) model; type: in vivo, male Sprague-Dawley rats; conditions: 10 mg/kg IP, 2 hr post dosing
Summary of the method: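 Male Sprague-Dawley rats with unilateral CCI (four loose ligatures around the right sciatic nerve; left side sham). 50% paw withdrawal threshold to von Frey filaments was measured blinded before and 2 h after a single i.p. dose (n=5-6). Value is the change from pre-dosing baseline.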

[3] = tested on: TNF-α production in LPS-stimulated human peripheral blood mononuclear cells; assay: Inhibition of LPS-stimulated TNF-α release from PBMCs; type: cell-based; conditions: PBMC
Method: (§1) IC50 values were determined for representative compounds of the invention based upon their ability to inhibit LPS-induced cytokine production in human peripheral blood mononuclear cells. Human PBMCs (peripheral blood mononuclear cells) were isolated over a Ficoll gradient from buffy coats obtained from the local Red Cross. 10^6 PBMC cells/well were seeded in 24-well tissue culture plates in RPMI 1640 medium supplemented with 10% human serum, hepes buffer and sodium pyruvate. The cells were treated with 0.1% DMSO (vehicle) or test compounds (1, 10, and 100 uM) 30 minutes prior to activation with LPS (lipopolysaccharide) (E. Coli) at 10 ng/mL. 6-10 hours post LPS stimulation the culture supernatants were collected and levels of cytokines TNF-α and IL-1β were quantified by ELISA (R&D Systems) and/or Luminex (Linco Diagnostics). IC50 calculations were plotted using a nonlinear regression curve fit for exemplary substituted pyrazolo[1,5-a]pyridine compounds of the invention; results are provided in Table 2.

[4] = tested on: IL-1β production in LPS-stimulated human peripheral blood mononuclear cells; assay: Inhibition of LPS-stimulated IL-1β release from PBMCs; type: cell-based; conditions: PBMC, LPS-stimulated cytokine release from PBMCs
Method: as §1

[5] = LPS-stimulated cytokine release from PBMCs, read-out: TNF-α (IC50)

Compound	IC50 [1]	melting point	Mechanical Allodynia ΔWT (change from pre-dosing 50% withdrawal threshold) [2]	IC50 [3, 5]	IC50 ([3]; less than or equal to about 50 μM, PBMCs, read-out: IC50, LPS-induced cytokine production (cytokine not specified))	IC50 [4]
CCC(=O)c1c(C(C)C)nn2ccccc12 [Compound 1001, 1-(2-isopropylpyrazolo[1,5-a]pyridin-3-yl)propan-1-one]	58 µM	41 to 43 °C	0 grams	13 µM	≤ 50 µM	> 100 µM
CC(C)C(=O)c1c(C2CC2)nn2ccccc12 [compound 1050, 1-(2-cyclopropylpyrazolo[1,5-a]pyridin-3-yl)-2-methylpropan-1-one]	–	108 to 109 °C	0 grams	–	–	–
O=C(c1c(C2CC2)nn2ccccc12)C1CC1 [Compound 1047, cyclopropyl(2-cyclopropylpyrazolo[1,5-a]pyridin-3-yl)methanone]	15.4 µM	102 to 104 °C	0.68 grams	–	–	–
CC(C)c1nn2ccccc2c1C(O)C(C)C (centres unmarked) [Compound 1002, 1-(2-isopropylpyrazolo[1,5-a]pyridin-3-yl)-2-methylpropan-1-ol]	> 200 µM	69 °C	0.79 grams	> 100 µM	–	> 100 µM
CC(C)C(=O)c1c(-c2ccc(F)cc2)nn2cc(C(F)(F)F)ccc12 [Compound 1027, 1-(2-(4-fluorophenyl)-6-(trifluoromethyl)pyrazolo[1,5-a]pyridin-3-yl)-2-methylpropan-1-one]	> 200 µM	129 to 130 °C	0 grams	–	–	–
CC(CNCc1ccccc1)C(=O)c1c(C(C)C)nn2ccccc12.Cl (centres unmarked) [compound 1066, 3-(benzylamino)-1-(2-isopropylpyrazolo[1,5-a]pyridin-3-yl)-2-methylpropan-1-one hydrochloride]	–	171 to 175 °C	0.1 grams	–	–	–
CC(CN)C(=O)c1c(C(C)C)nn2ccccc12.Cl (centres unmarked) [compound 1065, 3-amino-1-(2-isopropylpyrazolo[1,5-a]pyridin-3-yl)-2-methylpropan-1-one hydrochloride]	–	110 to 115 °C	0.91 grams	–	–	–
CC(C)c1nn2ccccc2c1C(=O)C1CC1 [Compound 1046, cyclopropyl(2-isopropylpyrazolo[1,5-a]pyridin-3-yl)methanone]	33.3 µM	72 °C	0 grams	–	–	–
